Drawing on a melting point compilation (Tetko et al.; mined from patent text by program, amines drawn as free bases though some values may be those of a salt), this text covers melting point for 88 molecules.

Where only a bound is given, the exact number is not on record here.

For orientation: melting point means the temperature, or range, at which the solid turns liquid. Molecule `CC(CO)NC(=O)COc1ccc(CCNS(=O)(=O)c2ccccc2)cc1` (stereo not drawn) returned a melting point of 90 to 91 °C.
`COc1ccc(CC(=O)c2cc(OC)c(OC)cc2C)cc1OC`: the melting point was found to be 115 °C.
To `COC(=O)c1c(OC(C)=O)cc(CBr)cc1OC(C)=O` belongs 93 to 95 °C.
In the case of `COc1cccc(CN2C(=O)CCc3cc(O)c(OC)cc32)c1`, the melting point fell in the range of 137 to 138 °C.
To `O=C(CCc1ccccc1)N[C@H]1CC[C@H](c2ccc(O)cc2)CC1` belongs 201 to 206 °C; to `CSc1nn2c(N3CCN(C)CC3)cc(Cl)nc2c1S(=O)(=O)c1ccccc1`, above 230 °C; to `CC(C)OC(=O)Cc1ccc2c(c1)C(=O)c1sccc1CO2`, 92 to 94 °C.
To `CCCc1nc(CO)n2[nH]c(=O)nc2c1Cc1ccc(-c2ccccc2-c2nnn[nH]2)cc1` belongs 182 to 183 °C; to `CCCN1C(=O)COc2cc(F)c(-n3nn[nH]c3=O)cc21`, 145 to 148 °C.
Molecule `NNC(=O)C(=O)N(NC(=O)c1cc(Cl)ccc1O)C(=O)c1ccccc1O` returned a melting point above 330 °C.
For the molecule `COC(=O)c1ccnc(OCc2nc(-c3ccccc3)oc2C)c1`, the melting point was in the range of 106 to 107 °C.
To `CC12CCCC1C1CC=C3CC(O)CC(O)C3(C)C1CC2` (stereo not drawn) belongs 182 to 183 °C.
In turn, `CC(=O)Nc1ccccc1SCc1ncon1` gave a melting point of 89 °C.
The molecule `COCCOCCOCC(=O)N(C)c1c(I)c(N)c(I)c(C(=O)O)c1I` yielded a melting point of 100 to 109 °C.
With `COc1ccc(NN=C(Sc2ccc(CF)cc2)C(C)=O)cc1`, the melting point fell in the range of 103 to 104 °C.
To `CC(C)(C)c1cc(CCc2ccccc2NC(=O)NC2CCN(Cc3ccc(C#N)cc3)CC2)cc(C(C)(C)C)c1O` belongs 197 to 198 °C; to `CCCCNC(=O)NS(=O)(=O)c1cccc2c1S(=O)(=O)N(C)C2`, 162 to 164 °C.
Take `O=S(=O)(Nc1ccc2c(OCc3ccc(-c4ccc(F)cc4)cc3F)cccc2c1)C(F)(F)F`: the melting point fell in the range of 134 to 136 °C.
To `CNc1ccsc1C(=O)OC` belongs 54 to 57 °C.
With `CON=C1CN(c2c(F)cc3c(=O)c(C(=O)O)cn(C4CC4)c3c2F)CC12CNC2` the figure was 205 to 207 °C; with `CCS[C@@H]1c2ccn3c(C)c(C)nc3c2N[C@H](c2ccccc2)[C@H]1O`, 220 to 223 °C; with `COc1cccc(C2=C(c3ccc(C(=O)N4Cc5cccn5Cc5ccccc54)cc3C)CCCC2)c1`, 91 to 94 °C.
For `CCCCCCCc1ccc(C2CC(CCCCCC)C(=O)O2)cc1` (stereo not drawn), the melting point fell in the range of 45.9 to 48 °C.
With `CCCc1nc(SC(F)F)c(C(=O)O)n1Cc1ccc(-c2ccccc2S(=O)(=O)NC(=O)NCc2cccc3ccccc23)cc1` the figure was 144 °C; with `CS(=O)(=O)NC1=CC(NC(=O)CCl)([N+](=O)[O-])CC=C1OC1CCCCC1` (stereo not drawn), 208 to 210 °C.
With `CCCOc1ccc(/C=C/C(=O)N2CCOCC2)cc1-c1nc2c(c(C)nn2CCC)c(=O)[nH]1` the figure was 156 to 157 °C; with `c1ccc(-c2cncs2)cc1`, 45 to 46 °C; with `Cc1ccc(C2COc3c(C)c(C)c(NC(=O)CC(C)(C)C)c(C)c32)cc1` (stereo not drawn), 176 to 177 °C.
To `CN=C(NS(=O)(=O)c1ccc(Cl)c(Cl)c1)SC` belongs 158 to 159 °C; to `CC(=O)CC(=O)C=Cc1ccc(O)cc1Cl`, 125 to 129 °C.
Turning to `Cc1nn(C)cc1C(=O)Nc1cccc2c1CCC2(C)C`, the melting point was 147 °C.
With `Cc1cc(C(=O)Nc2ccc(C(=O)O)cc2)no1` the figure was 267 to 270 °C; with `Cc1ccc(N(c2ccccc2)c2ccc(-c3ccc(N(c4ccccc4)c4ccc(C)cc4)cc3)cc2)cc1`, 163 to 164 °C; with `CC(NNC=NN)C(=O)O` (stereo not drawn), 239 to 241 °C.
With `COc1ccc(/C=C/c2cc(/C=C/c3ccc4cc[nH]c4c3)n[nH]2)cc1OCc1ccccn1` the figure was 110 to 117 °C.
With `COc1c(O)c(C)c(CN2CCOCC2)c(O)c1OC` the figure was 127 to 130 °C; with `Cc1nc(-c2cccc(CN(C(=O)Nc3ccc(-c4ccccc4S(=O)(=O)NC(C)(C)C)cc3)c3ccccc3)c2)no1`, 191 to 192 °C; with `CC(F)=C1CCC2C3CC=C4CC(O[Si](C)(C)C(C)(C)C)CCC4(C)C3CCC12C` (stereo not drawn), 128 to 130 °C.
On to `CC(CCCC(C)(C)O)C1CC(=O)C2=C3CCC4CC(O)CCC4(C)C3CCC21C` (stereo not drawn), for which the melting point lay within 177 to 179 °C.
To `COc1cc(Nc2ccnc(Nc3cc(OC)c(OC)c(OC)c3)n2)cc(OC)c1` belongs 180 °C.
With `Cc1cc2cnnc(Cl)c2n1Cc1ccccc1` the figure was 152 to 156 °C; with `CC(C)(C)c1cc(CN2CCN(c3ccc([N+](=O)[O-])cc3)CC2)cc(C(C)(C)C)c1O`, 178 °C; with `COc1cccc2c1C(=O)N(C)CC(=O)N2`, 208 to 210 °C.
As for `COc1c(O)ccc(C(=O)c2ccccc2)c1[N+](=O)[O-]`, the melting point was 169 to 171 °C.
With `CC1(C)OCCN1C(=O)C(Cl)Cl` the figure was 113 to 115 °C; with `COc1ccc(CC2Cc3cccc(-c4cccc(C(=O)NCCN5CCCC5)c4)c3O2)cc1OC` (stereo not drawn), 134 to 135 °C; with `FC(F)(F)c1cc(CO[C@H]2CCCN(Cc3cccnn3)[C@H]2c2ccccc2)cc(C(F)(F)F)c1`, 111 to 113 °C.
To `COc1ccc(C(C#N)SC2CCCCC2)cc1OC` (stereo not drawn) belongs 80 to 82 °C; to `O=c1c2cc3ccccc3cc2oc2cc(OCC3CO3)cc(O)c12` (stereo not drawn), 201 to 202 °C.
With `CCCc1cc(Cl)c2oc(C(=O)c3ccc(Cl)cc3)c(C)c2c1OC(=O)c1ccc(Cl)cc1` the figure was 177 to 182 °C.
`CCC(Cc1ccc(C(=O)OC)cc1)NCC(O)c1ccc(O)c(CO)c1` (stereo not drawn) showed a melting point of 64 to 67 °C.
`Cc1cc(N)nc(CCCCCCCCCCO)c1O` showed a melting point of 138 to 139 °C.
With `CCNC(=O)N1N=C(c2ccc([N+](=O)[O-])cc2)c2cc(Cl)ccc2CC1C` (stereo not drawn) the figure was 170 to 172 °C; with `Cc1cccc(N(C)C(=O)NC2N=C(c3ccccc3F)c3ccccc3N(CC(=O)N3CC4CCC(CC4)C3)C2=O)c1` (racemic), 207 to 212 °C; with `CCCCCNC12CN3CN(CN(C3)C1)C2`, 119 to 120 °C.
Regarding `CN1C(=O)CN(c2ccc(F)cc2)NC1=O`, the melting point is 205 to 206 °C.
To `COc1cc(F)c(N2CCCC2=O)c(S(N)(=O)=O)c1` belongs 205 °C.
To `CC(C)(C)OC(=O)N1CCC[C@@H](OC(=O)Nc2ccc(Cl)cc2)C1` belongs 160 to 161 °C; to `O=Cc1ccc(O)c2ccsc12`, 204 °C.
With `CCNc1ccc(-c2ccnc3c(C(=O)c4cccs4)cnn23)cc1` the figure was 130 to 132 °C; with `CC(=O)NC(Cc1c[nH]c2ccccc12)C(=O)CCc1cc(C(F)(F)F)cc(C(F)(F)F)c1` (stereo not drawn), 50 to 53 °C.
For `O=C1Nc2ccc(S(=O)(=O)N3CCC[C@H]3CN3CCOCC3)cc2C1=O`, the melting point fell in the range of 163 to 164 °C.
Regarding `ClCCC(=C(c1ccccc1)c1ccc(OCCN2CCCC2)cc1)c1ccccc1`, the melting point fell in the range of 112 to 115 °C.
To `CC(C)(C)NNC(=O)c1nn(-c2ccc(F)cc2F)c2c1C1CCC2C1` (stereo not drawn) belongs 140 to 142 °C; to `Cc1cc2c(cc1N)OC(=O)C2C` (stereo not drawn), 123 to 124 °C; to `CCOC(=O)C(Cc1cccc(OCC(F)(F)C(F)F)c1)C(=O)c1ccc(F)cc1` (stereo not drawn), 55 to 56 °C.
To `BrCc1cc2ccsc2c2ccccc12` belongs 99 to 101 °C.
With `CNc1ccncc1N` the figure was 163 to 165 °C; with `COc1cc(C)nn1-c1ccc(Br)cc1`, 67 to 68 °C.
`COc1cc2c(Nc3ccc(Cl)cc3F)ncnc2cc1OCCCC(=O)N1CCOCC1` yielded a melting point of 216 to 217 °C.
`Cc1cc(Cn2nc(C(F)(F)C(F)(F)F)nc2C(F)(F)F)ccc1NC(=O)c1cccc(Br)c1C(=O)N[C@@H](C)CS(C)(=O)=O` yielded a melting point of 104 to 108 °C.
With `CC(=O)C1CCC2C3CCC4CC(O)CCC4(C)C3=CCC12C` (stereo not drawn) the figure was 160 to 161 °C.
Regarding `O=Cc1cc(F)cc2c1OCCC2`, the melting point was in the range of 55 to 57 °C.
To `Cc1ccc(SSc2ccc(C)cc2C(=O)Nc2ccc(S(N)(=O)=O)cc2)c(C(=O)Nc2ccc(S(N)(=O)=O)cc2)c1` belongs 307 °C; to `O=c1oc2ccc(Cl)cc2c(O)c1CCCOc1ccccc1`, 162 to 163 °C.
With `Cc1nc(N)[nH]c(=O)c1N1CCN(c2ccc(CN)cc2)CC1` the figure was 281 to 282 °C; with `CC(C)(C)NS(=O)(=O)c1cccc2c1SC(C)(C)C2`, 103 to 105 °C.
To `CC(=O)c1cccc(NC(=O)c2cc(C(N)=O)cc(C(=O)N(c3cccc(C(C)=O)c3)c3cccc(C(C)=O)c3)c2)c1` belongs 270 °C.
`CC(C)CC1(SCCCN=[N+]=[N-])c2c([nH]c(=O)n(C)c2=O)SC1Cc1cccc2ccccc12` (stereo not drawn) returned a melting point of 94 to 96 °C.
With `c1cnc(N2CCN(Cc3ccc(CN4CCN(c5ncccn5)CC4)cc3)CC2)nc1` the figure was 193 to 195 °C.
With `COC(=O)c1[nH]c2c(Cl)ccc(Cl)c2c1C` the figure was 110 to 111 °C; with `O=C(OCc1ccccc1)N1CCN(C(=O)C(Cc2ccc(O)cc2)NS(=O)(=O)c2cccc3cnccc23)CC1` (stereo not drawn), 137 to 141 °C; with `CC#CCOc1ccc(S(=O)(=O)C(C(=O)O)C2CCN(C(=O)c3ccccc3)CC2)cc1` (stereo not drawn), 90 °C.
On to `C[C@H](NC(=O)OCc1ccccc1)C(=O)N[C@@H](Cc1ccccc1)C(=O)O`, for which the melting point fell in the range of 121 to 122 °C.
To `CCOC(=O)N1CCN(c2ncnc3[nH]ncc23)CC1` belongs 245 to 247 °C; to `Brc1ccc2c(ccn2Cc2ccccc2)c1`, 90 °C.
With `COc1cc(NCCN2CCC(Nc3nc4ccccc4n3Cc3ccc(F)cc3)CC2)ncn1` the figure was 146 °C; with `CCN(CC)CCNC(=O)c1cnc2ccc(I)cc2c1Cl`, 76 to 78 °C.
